The term IC50 denotes the concentration needed to halve the response being measured.

Here are results for 26 molecules from patent publication US9102637B2, “Bicyclic thiazole compounds” (CARNA BIOSCIENCES INC., priority 2013, dated 2015).

Assay [1] has as its target human TNIK (N-terminal segment, TNIK_N, residues 1-314) (Homo sapiens (Human), UniProt Q9UKE5). The assay is described as follows: TNIK kinase assay (mobility shift). It is filed as biochemical. The note with it: TNIK_N kinase activity, 25 μM ATP, 1 h at room temperature. The method, boiled down: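 GST-tagged human TNIK residues 1-314 (Sf21 baculovirus) at 0.08 ng/μl phosphorylated 1 μM FITC-peptide with 25 μM ATP. Buffer: 20 mM Hepes pH 7.5, 5 mM MgCl2, 2 mM DTT, 1% DMSO; 1 h at room temperature, stopped with EDTA. Mobility-shift detection; activity = P/(P+S).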

The test system of assay [2] is human colon cancer cell line HCT-116. The assay is described as follows: In vitro cell proliferation assay. The class given is cell-based. The note with it: HCT-116 cell number, 72 hours of treatment. The procedure: In Vitro Cell Proliferation Assay
The human colon cancer cell line HCT-116 was seeded at 600 cells/well in 96 well-plate (ThermoFisher) using RPMI medium containing 2 mM L-glutamine (Invitrogen) supplemented with 10% FCS (Invitrogen) and 1% penicillin/streptomycin (Sigma) and maintained at 37° C., 5% CO2 and 100% humidity. The following day, old medium was withdrawn and the fresh medium was added. Initial numbers of cells were counted before adding compounds. Then cells were treated in duplicates with compounds (a half-logarithmic serial dilution from 10 μM). Eight untreated control wells were incubated in each plate. After 72 hours of treatment, cells were fixed with 2% paraformaldehyde, and the nucleus were stained with Hoechst 33258 (Invitrogen). The numbers of cells were counted with ArrayScan™ VTI (ThermoFisher Scientific).

Sequence of human TNIK (N-terminal segment, TNIK_N, residues 1-314) (Q9UKE5 1-314): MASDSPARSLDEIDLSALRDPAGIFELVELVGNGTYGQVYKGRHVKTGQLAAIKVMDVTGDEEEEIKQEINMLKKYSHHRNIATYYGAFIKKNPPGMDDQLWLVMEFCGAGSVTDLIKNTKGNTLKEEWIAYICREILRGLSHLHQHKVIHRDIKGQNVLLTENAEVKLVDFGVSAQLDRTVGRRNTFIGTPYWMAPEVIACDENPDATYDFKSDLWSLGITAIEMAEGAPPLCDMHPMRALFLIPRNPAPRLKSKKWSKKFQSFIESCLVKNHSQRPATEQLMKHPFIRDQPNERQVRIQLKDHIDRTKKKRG

Regarding `NC(=O)c1nc(Nc2ccc3ccccc3c2)sc1NC(=O)c1ccc(Cn2cnnn2)cc1` [Example 205, 5-(4-[(1H-tetrazol-1-yl)methyl)benzamido]-2-(naphthalen-2-ylamino)thiazole-4-carboxamide], the IC50 in assay [1] was 5.9 nM; in assay [2], under 100 nM.
Consider `CN1CCN(c2ccc(C(=O)Nc3sc(N(C)c4ccc5ccccc5c4)nc3C(N)=O)cc2)CC1` [Example 65, 2-[methyl(naphthalen-2-yl)amino]-5-[4-(4-methyl-piperazin-1-yl)benzamido]thiazole-4-carboxamide], for which the results for the IC50 in assay [1] and in assay [2] were 36.3 nM and 1000 to 10000 nM, respectively.
On to `NCc1ccc(C(=O)Nc2sc(Nc3ccc4ccccc4c3)nc2C(N)=O)cc1` [Example 23, 5-(4-aminomethylbenzamido)-2-(naphthalen-2-yl-amino)thiazole-4-carboxamide], for which the IC50 in assay [1] is 5.3 nM; in assay [2], 100 to 1000 nM.
Take `NC(=O)c1nc(Nc2ccc3cnccc3c2)sc1NC(=O)c1ccsc1` [Example 46, 2-(isoquinolin-6-ylamino)-5-(thiophene-3-carbox-amido)thiazole-4-carboxamide]: the IC50 is 12 nM in assay [1] and 100 to 1000 nM in assay [2].
`CN1CCN(c2ccc(C(=O)Nc3sc(N(C)c4ccc5ncccc5c4)nc3C(N)=O)cc2)CC1` [Example 28, 2-[methyl(quinolin-6-yl)amino]-5-[4-(4-methylpiperazin-1-yl]benzamido)thiazole-4-carboxamide]: the IC50 in assay [1] was 17 nM; in assay [2] it was 100 to 1000 nM.
As for `NC(=O)c1nc(Nc2ccc3ccccc3c2)sc1NC(=O)c1ccc(Cn2cncn2)cc1` [Example 195, 5-{4-[(1H-1,2,4-triazol-1-yl)methyl]benzamido}-2-(naphthalen-2-ylamino)thiazole-4-carboxamide], the IC50 in assay [1] was 2.5 nM; in assay [2] it was under 100 nM.
Turning to `NC(=O)c1nc(Nc2ccc3ccccc3c2)sc1NC(=O)c1ccc(CN2CCOCC2)cc1` [Example 18, 5-[4-(morpholinomethyl)benzamido]-2-(naphthalen-2-ylamino)thiazole-4-carboxamide], the values for the IC50 in assay [1] and in assay [2] were 8.6 nM and under 100 nM, respectively.
`COc1ccc2cc(Nc3nc(C(N)=O)c(NC(=O)c4ccsc4)s3)ccc2c1` [Example 73, 2-[(6-methoxynaphthalen-2-yl)amino]-5-(thio-phene-3-carboxamido)thiazole-4-carboxamide] returned an IC50 in assay [2] of 1000 to 10000 nM.
On to `CN1CCN(c2ccc(C(=O)Nc3sc(Nc4cccc5ncccc45)nc3C(N)=O)cc2)CC1` [Example 26, 5-[4-(4-methylpiperazin-1-yl)benzamido]-2-(quinolin-5-ylamino)thiazole-4-carboxamide], for which the IC50 was 15.6 nM in assay [1] and 1000 to 10000 nM in assay [2].
For `NC(=O)c1nc(Nc2ccc3ccccc3c2)sc1NC(=O)c1ccc(NCCO)cc1` [Example 10, 5-[4-(2-hydroxyethylamino)benzamido]-2-(naphthalen-2-ylamino)thiazole-4-carboxamide], the IC50 in assay [1] was 10.6 nM; in assay [2], under 100 nM.
For the molecule `NC(=O)c1nc(Nc2ccc3ccccc3c2)sc1NC(=O)c1ccc(NCCN2CCCCC2)cc1` [Example 13, 2-(naphthalen-2-ylamino)-5-{4-[2-(piperidin-1-yl)ethylamino]benzamido}thiazole-4-carboxamide], the results for the IC50 in assay [1] and in assay [2] were 8 nM and under 100 nM, respectively.
For `NC(=O)c1nc(Nc2ccc3ccccc3c2)sc1NC(=O)c1ccc(N2CCOCC2)cc1` [Example 15, 5-(4-morpholinobenzamido)-2-(naphthalen-2-yl-amino)thiazole-4-carboxamide], in assay [2], the half-inhibitory concentration (IC50) is under 100 nM.
On to `CC(C)=CC(=O)Nc1sc(Nc2ccc3ccccc3c2)nc1C(N)=O` [Example 83, 5-(3-methylbut-2-enamido)-2-(naphthalen-2-yl-amino)thiazole-4-carboxamide], for which the IC50 is 12.7 nM in assay [1] and 1000 to 10000 nM in assay [2].
With `NC(=O)c1nc(Nc2ccc3ccccc3c2)sc1NC(=O)c1ccc(Cn2ccnc2)cc1` [Example 208, 5-{4-[(1H-imidazol-1-yl)methyl]benzamido}-2-(naphthalen-2-ylamino)thiazole-4-carboxamide], the IC50 is 3 nM in assay [1] and under 100 nM in assay [2].
`CC(=O)Nc1ccc(C(=O)Nc2sc(Nc3ccc4ccccc4c3)nc2C(N)=O)cc1` [Example 2, 5-(4-acetamidobenzamido)-2-(naphthalen-2-ylamino)thiazole-4-carboxamide]: the IC50 in assay [1] is 19.8 nM; in assay [2] it was under 100 nM.
The molecule `Cc1ccc(C(=O)Nc2sc(Nc3ccc4ccccc4c3)nc2C(N)=O)s1` [Example 34, 5-(5-methylthiophene-2-carboxamido)-2-(naph-thalen-2-ylamino)thiazole-4-carboxamide] displayed an IC50 in assay [2] of under 100 nM.
For `NC(=O)c1nc(Nc2ccc3ccccc3c2)sc1NC(=O)c1ccc(N2CCC(O)CC2)cc1` [Example 97, 5-[4-(4-hydroxypiperidin-1-yl)benzamido]-2-(naphthalen-2-ylamino)thiazole-4-carboxamide], the IC50 is 12.7 nM in assay [1] and under 100 nM in assay [2].
In the case of `CN(C)CCNc1ccc(C(=O)Nc2sc(Nc3ccc4ccccc4c3)nc2C(N)=O)cc1` [Example 11, 5-{4-[2-(dimethylamino)ethylamino]benzamido}-2-(naphthalen-2-ylamino)thiazole-4-carboxamide], the IC50 in assay [1] was 8.6 nM; in assay [2], under 100 nM.
For `NC(=O)c1nc(Nc2ccc3ccccc3c2)sc1NC(=O)c1ccc(N)cc1` [Example 16, 5-(4-aminobenzamido)-2-(naphthalen-2-ylamino) thiazole-4-carboxamide], the IC50 was 20.3 nM in assay [1] and under 100 nM in assay [2].
Turning to `CN1CCN(Cc2ccc(C(=O)Nc3sc(Nc4ccc5ccccc5c4)nc3C(N)=O)cc2)CC1` [Example 17, 5-{4-[(4-methylpiperazin-1-yl)methyl]benzamido}-2-(naphthalen-2-ylamino)thiazole-4-carboxamide], the IC50 in assay [1] is 5.1 nM; in assay [2] it was under 100 nM.
The matching figures for `NC(=O)c1nc(Nc2ccc3ccccc3c2)sc1NC(=O)c1cc2sccc2[nH]1` [Example 35, N-[4-carbamoyl-2-(naphthalen-2-ylamino)thiazol-5-yl]-4H-thieno[3,2-b]pyrrole-5-carboxamide]: 22.7 nM and 100 to 1000 nM.
Take `CN1CCN(c2ccc(C(=O)Nc3sc(Nc4ccc5ccccc5c4)nc3C(N)=O)cc2)CC1` [Example 12, 5-[4-(4-methylpiperazin-1-yl)benzamido]-2-(naphthalen-2-ylamino)thiazole-4-carboxamide]: the half-maximal inhibitory concentration (IC50) was 10.2 nM in assay [1] and 100 to 1000 nM in assay [2].
As for `CN1CCN(c2ccc(C(=O)Nc3sc(Nc4ccc5ncccc5c4)nc3C(N)=O)cc2)CC1` [Example 24, 5-[4-(4-methylpiperazin-1-yl)benzamido]-2-(quinolin-6-ylamino)thiazole-4-carboxamide], the figures for the IC50 in assay [1] and in assay [2] were 4.1 nM and 1000 to 10000 nM, respectively.
The matching figures for `CN1CCN(c2ccc(C(=O)Nc3sc(Nc4cccc5cccnc45)nc3C(N)=O)cc2)CC1` [Example 27, 5-[4-(4-methylpiperazin-1-yl)benzamido]-2-(quinolin-8-ylamino)thiazole-4-carboxamide]: 19.1 nM and 1000 to 10000 nM.
For `NC(=O)c1nc(Nc2ccc3ccccc3c2)sc1NC(=O)c1ccc(F)cc1` [Example 8, 5-(4-fluorobenzamido)-2-(naphthalen-2-ylamino) thiazole-4-carboxamide], the half-maximal inhibitory concentration (IC50) in assay [2] lay within 100 to 1000 nM.
In the case of `CN1CCN(CCCCCC(=O)Nc2sc(Nc3ccc4ccccc4c3)nc2C(N)=O)CC1` [Example 91, 5-[6-(4-methylpiperazin-1-yl)hexanamido]-2-(naphthalen-2-ylamino)thiazole-4-carboxamide], in assay [2], the IC50 was in the range of 100 to 1000 nM.
